Laboratory results taken from patent publication US6545033B1, “Fused 1-(2,6-dichloro-4-trifluoromethylphenyl)-pyrazoles, the synthesis thereof and the use thereof as pesticides” (3-Dimensional Pharmaceuticals, Inc., priority 1999, dated 2003).

Columns and labels:
[1] = system: cat fleas (Ctenocephalides felis), CO Fleas; experiment: In vivo cat flea contact assay, CO fleas; details: Ctenocephalides felis, topical; contact with treated filter disk in vial, about 24-30 hours; mM = concentration of the DMSO solution, about 1 μL applied; read-out: LD50 (mM), CO Fleas
Method in brief: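 Compound in DMSO (0.05–100 mM stock), ~1 μL dried 24–48 h on GF/C disk in sealed glass vial; ~20 newly emerged fleas added after cold sedation, held in dark. Healthy, moribund and dead fleas counted after ~24–30 h; percent mortality corrected for DMSO-only control vials.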

[2] = molecular target: Mouse Brain GABA Receptors; experiment: In vitro assay of binding to mouse brain GABA receptors (3H-EBOB displacement, mouse brain membranes); details: displacement of 5.2 nM 3H-EBOB, about 45 min at about 24° C.
Method: Mouse brains were obtained from carbon dioxide-asphyxiated Swiss-Webster mice, washed with phosphate-buffered saline, and used either fresh or after storage at −80° C. for up to 10 months. Unless specified, all preparation steps were performed at 0-4° C. For each preparation, 20 brains were suspended in about 40 mL of 0.32 M sucrose and homogenized for about 2 minutes, using a Tissumizer™ homogenizer equipped with a SDT-100EN probe (available from Tekmar-Dohrmann, Cincinnati, Ohio) running at 50% of its maximum speed. The extract was centrifuged for about 5 min at about 1000×g to pellet intact brain tissue. The supernatant was retained and the pellet washed with an additional 40 mL of 0.32 M sucrose and centrifuged at 1000×g for about 5 minutes. The 1000×g supernatants were combined and centrifuged at about 10,000×g for about 20 min to pellet membranes. The 10,000×g supernatant was discarded and the pellet was resuspended in about 20 mL of water containing 1 mM EDTA. The sample was dialyzed two times for about 3 hours each against about 3 L of water. The sample was then centrifuged at about 25,000×g for about 30 min to pellet the membranes. After centrifugation, the supernatant was discarded and the wet pellet recovered. The protein concentration of the pellet was determined by the Bio-Rad Protein Assay (available from Bio-Rad Laboratories, Hercules, Calif.) using bovine serum albumin as a standard. The membranes were aliquoted and stored at −80° C. for up to 6 months before use.
Mouse brain membranes were prepared as described above from dissected mouse brains. Test compounds were dissolved in dimethylsulfoxide (DMSO) at concentrations ranging from about 2 nM to about 100 mM. About 1 μL of a dissolved test compound was dispensed into a well of a 96-well polystyrene plate. About 100 μL of ice cold assay buffer (10 mM phosphate, 300 mM NaCl, pH 7.5) containing 5.2 nM 4′-Ethynyl-4-n-[2,3-^3H2]propylbicycloorthobenzoate (^3H-EBOB, 38 Ci/mmol, available from NEN Life Science Products, Boston, Mass.) was added to the well, followed by about 100 μL of ice cold assay buffer containing about 0.25-0.5 mg/mL mouse brain membranes. Control wells were prepared the same way except that the mouse brain membranes were omitted from the “negative” wells, and the test compounds were omitted from the “positive” wells. The samples were incubated for about 45 min at about 24° C. and then filtered on a 0.1% (w/v) polyethylenimine-soaked glass fiber Filtermat A (available from EG&G Wallac Inc., Gaithersburg, Md.) followed by four 100 mL rinses of cold assay buffer using a Harvester 96® cell harvester (available from Tomtec, Orange, Conn.). The filtermat was air dried and radioactivity bound to the filtermat was detected with either a 1450 MicroBeta® Trilux scintillation counter (available from EG&G Wallac Inc.) or a Topcount NXT™ scintillation counter (available from Packard Instrument Co., Meriden, Conn.) using standard methods.
Specific binding was considered to be the difference between total ^3H bound to the mouse brain membranes in the absence of any inhibitors and nonspecific ^3H bound to the mouse brain membranes upon the addition of 5 μM unlabeled EBOB. The average radioactivity contained in the “negative” wells was subtracted from each of the assay wells. […] Compounds that displaced ^3H-EBOB specifically bound to the mouse brain membranes were tested at 24-48 different final concentrations, varying from about 1 nM to about 125 μM, in order to determine the concentration at which 50% of the maximum inhibition due to the addition of that compound was observed (IC50). […]

[3] = system: cat fleas (Ctenocephalides felis), NC Fleas; experiment: In vivo cat flea contact assay, NC fleas; details: contact with treated filter disk in vial, about 24-30 hours; mM = concentration of the DMSO solution, about 1 μL applied
Method: This example describes an in vivo assay to screen compounds for their ability to kill cat fleas via contact.
Test compounds were dissolved in dimethylsulfoxide (DMSO) at concentrations ranging from about 0.05 mM to about 100 mM. About 1 μL of dissolved test compound was dispensed onto a 6 mm (diameter) GF/C filter disk (filter material available from Whatman Inc., Clifton, N.J.) in the bottom of a 4 mL screw-top glass vial and allowed to air dry 24-48 hours. Positive control vials were prepared in the same manner except that no test compounds were dissolved in the DMSO. About 20 newly emerged cat fleas (Ctenocephalides felis) were sedated by refrigeration at 0-4° C. and transferred to each vial. Each vial was sealed with a thin, perforated Teflon™ septum secured by an open top screw cap and held vertically in the dark. After about 24-30 hours, the healthy, moribund, and dead cat fleas in each vial were counted. The percentage of dead cat fleas in each vial was then calculated using the formula M=100(D−(FC/100))/(F−(FC/100)), in which M is the percentage of dead cat fleas due to the addition of the test compound, D is the number of dead cat fleas in the test vial, F is the total number of cat fleas in the test vial, and C is the percentage of dead cat fleas in the control vials.

In the case of `FC(F)(F)c1cc(Cl)c(-n2cc3c(n2)CCCCC3)c(Cl)c1` [Compound 15, 2-[2,6-Dichloro-4-(trifluoromethyl)phenyl]-2,4,5,6,7,8-hexahydrocyclohepta[c]pyrazole], the LC50 [1] is reported as 29.5 mM, the IC50 [2] is reported as 30000 nM and the “LD50 (mM), NC Fleas” value [3] is reported as 33.5 mM.

In the case of `FC(F)(F)c1cc(Cl)c(-n2cc3c(n2)CSC3)c(Cl)c1` [Compound 3, 2-[2,6-Dichloro-4-(trifluoromethyl)phenyl]-4,6-dihydrothieno-[3,4-c]pyrazole], the LC50 [1] is reported as 1.7 mM, the IC50 [2] is reported as 2000 nM and the “LD50 (mM), NC Fleas” value [3] is reported as 3.0 mM.

`FC(F)(F)c1cc(Cl)c(-n2cc3c(n2)CCC3)c(Cl)c1` [Compound 11, 2-[2,6-Dichloro-4-(trifluoromethyl)phenyl]-2,4,5,6-tetrahydrocyclopenta[c]pyrazole] was tested, and the LC50 [1] was 8 mM, the IC50 [2] was 1600 nM and the “LD50 (mM), NC Fleas” value [3] was 7 mM.
